Key:
[1] = target: T1, glucocorticoid receptor (Homo sapiens, UniProt P04150); assay: HepG2 Tyrosine Aminotransferase (TAT) Assay; type: cell-based
T1 construct: endogenous in cells; host or cells: HepG2
T1 sequence (P04150 1-777): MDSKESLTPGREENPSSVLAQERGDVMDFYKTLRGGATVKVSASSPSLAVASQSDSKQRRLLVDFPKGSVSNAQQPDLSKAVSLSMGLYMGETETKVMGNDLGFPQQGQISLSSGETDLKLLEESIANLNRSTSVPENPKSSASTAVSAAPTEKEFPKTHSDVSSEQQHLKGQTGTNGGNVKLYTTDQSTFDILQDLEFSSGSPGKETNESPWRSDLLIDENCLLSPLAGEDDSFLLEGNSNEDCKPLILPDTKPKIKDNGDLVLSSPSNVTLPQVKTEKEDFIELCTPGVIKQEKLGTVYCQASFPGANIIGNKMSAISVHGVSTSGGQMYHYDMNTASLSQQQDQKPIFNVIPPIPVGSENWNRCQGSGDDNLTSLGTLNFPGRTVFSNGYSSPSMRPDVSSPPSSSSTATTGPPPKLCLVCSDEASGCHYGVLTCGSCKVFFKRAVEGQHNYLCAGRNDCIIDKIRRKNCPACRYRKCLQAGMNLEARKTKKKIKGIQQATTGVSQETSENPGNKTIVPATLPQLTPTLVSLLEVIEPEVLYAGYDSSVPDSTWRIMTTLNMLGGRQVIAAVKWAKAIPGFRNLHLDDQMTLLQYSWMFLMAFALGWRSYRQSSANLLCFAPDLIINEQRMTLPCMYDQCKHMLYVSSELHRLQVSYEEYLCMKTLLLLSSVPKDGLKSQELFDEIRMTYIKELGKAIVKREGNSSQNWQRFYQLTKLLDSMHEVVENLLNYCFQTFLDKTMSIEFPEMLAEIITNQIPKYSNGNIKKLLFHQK
Procedure: Glucocorticoid mediated activation of TAT occurs by transactivation of glucocorticoid response elements in the TAT promoter by glucocorticoid receptor-agonist complex.
HepG2 cells were cultured using MEME media supplemented with 10% (v/v) foetal bovine serum; 2 mM L-glutamine and 1% (v/v) NEAA at 37° C., 5%/95% (v/v) CO2/air.
Compounds were serially half log diluted in 100% (v/v) dimethylsulphoxide from a 10 mM stock.
HepG2 cells were then lysed with 30 μl of cell lysis buffer containing a protease inhibitor cocktail for 15 minutes at 4° C. […] After 2 hours incubation at 37° C. the reaction was terminated by the addition of 15 μl of 10 M aqueous potassium hydroxide solution, and the plates incubated for a further 30 minutes at 37° C.
[compound] and fitting the data to a 4 parameter logistic equation.

[2] = target: T2, human recombinant GR (Homo sapiens, UniProt P04150); assay: Human Glucocorticoid Receptor (GR) Fluorescence Polarisation (FP) Binding Assay; conditions: Ki from IC50 by ligand depletion correction; displacement of Fluorome GS Red
T2 construct: purchased PanVera P2812
T2 sequence (P04150 1-777): T1 sequence (P04150 1-777)
Procedure: The following is a description of a FP assay for measuring compound inhibition of labelled glucocorticoid binding to the human recombinant GR.
The binding affinity of test compounds was determined using a FP binding assay using human recombinant GR (PanVera P2812) and a fluorescent labelled glucocorticoid ligand (Fluorome GS Red) (PanVera P2894). The presence of inhibitors prevents the formation of a GS Red/GR complex resulting in a decrease in the measured polarisation value. The change in polarisation value in the presence of test compounds is used to calculate the binding affinity of the compound for GR.
This assay was performed in 384 well, black, round-bottom, polypropylene micro titre plates in a final volume of 20 μl. The assay contained 5 μl 1 nM GR (final concentration), 5 μl 0.5 nM Fluorome GS Red (final concentration) in the presence of 10p test compounds. Positive control wells (high polarisation) receive, 10 μl 2% (v:v) DMSO vehicle (1% (v/v) final concentration)+5 μl 1 nM GR and 5 μl 0.5 nM Fluorome GS Red. […] Assay blank background wells (used for normalisation) receive 15 μl 1×GS screening buffer+5 μl GR.
For the IC50 determination (concentration of compound that displaces 50% of the bound GS Red), compounds were tested at eight different concentrations in duplicate in two independently performed experiments. Compounds were prepared as solubilised solids at 10 mM in DMSO. On the day of assay, an 8 point half-log serial dilution (55 μl DMSO+25 μl compound solution) was prepared. A 1:50 dilution (1 μl compound solution+49 μl 1×GR screening buffer) was prepared for each compound. The compounds were prepared at 2× final assay concentration.
The plates were mixed and incubated for 4 hour at room temperature. FP was measured using an Envision Excite plate reader with 535 nm excitation and 590 nm emission interference filters.
Milli-polarisation (mP) values were calculated using the below equation: mP=1000*(S−G*P)/(S+G*P) where S and P are assay blank background subtracted fluorescence units, G=G-factor (1.07).
Compound IC50 values were calculated by plotting a [compound] v. % inhibition curve and fitting the data to a 4-parameter logistic fit equation.
10×GR screening buffer (100 mM potassium phosphate pH 7.4, 200 mM Na2MoO4, 1 mM EDTA, 20% (v/v) DMSO). To prepare 1×GR screening buffer, combine 1 ml 10×GR screening buffer (PanVera P2814)+1 ml stabilising peptide (PanVera P2815)+7.95 ml 4° C. MQ water. Add 50p 1M DTT, vortex and place on ice until use.

Row | SMILES | Ki [1] [nM] | Ki [2] [nM]
1 | O=C(c1ccccn1)[C@]12Cc3cnn(-c4ccc(F)cc4)c3C[C@@H]1CCN(S(=O)(=O)c1ccc(C(F)(F)F)cc1)C2 [Example 1A, ((4aR,8aS)-1-(4-fluorophenyl)-6-((4-(trifluoromethyl)phenyl)sulfonyl)-4,4a,5,6,7,8,8a,9-octahydro-1H-pyrazolo[3,4-g]isoquinolin-4a-yl)(pyridin-2-yl)methanone] | 20 to 100 | 0.5 to 1
2 | O=C(c1ccccn1)[C@]12Cc3cnn(-c4ccc(F)cc4)c3C[C@@H]1CCN(S(=O)(=O)c1ccc(Cl)c(Cl)c1)C2 [Example 1B, ((4aR,8aS)-6-((3,4-dichlorophenyl)sulfonyl)-1-(4-fluorophenyl)-4,4a,5,6,7,8,8a,9-octahydro-1H-pyrazolo[3,4-g]isoquinolin-4a-yl)(pyridin-2-yl)methanone] | 20 to 100 | > 1
3 | O=C(c1ccccn1)[C@]12Cc3cnn(-c4ccc(F)cc4)c3C[C@@H]1CCN(S(=O)(=O)c1ccc(F)c(F)c1)C2 [Example 1C, ((4aR,8aS)-6-((3,4-difluorophenyl)sulfonyl)-1-(4-fluorophenyl)-4,4a,5,6,7,8,8a,9-octahydro-1H-pyrazolo[3,4-g]isoquinolin-4a-yl)(pyridin-2-yl)methanone] | 20 to 100 | > 1
4 | CCCn1ncc(S(=O)(=O)N2CC[C@H]3Cc4c(cnn4-c4ccc(F)cc4)C[C@]3(C(=O)c3ccccn3)C2)n1 [Example 2A, ((4aR,8aS)-1-(4-fluorophenyl)-6-((2-propyl-2H-1,2,3-triazol-4-yl)sulfonyl)-4,4a,5,6,7,8,8a,9-octahydro-1H-pyrazolo[3,4-g]isoquinolin-4a-yl)(pyridin-2-yl)methanone] | < 20 | < 0.5
5 | CC(C)n1cc(S(=O)(=O)N2CC[C@H]3Cc4c(cnn4-c4ccc(F)cc4)C[C@]3(C(=O)c3ccccn3)C2)cn1 [Example 2AA, ((4aR,8aS)-1-(4-fluorophenyl)-6-((1-isopropyl-1H-pyrazol-4-yl)sulfonyl)-4,4a,5,6,7,8,8a,9-octahydro-1H-pyrazolo[3,4-g]isoquinolin-4a-yl)(pyridin-2-yl)methanone] | 20 to 100 | < 0.5
6 | CCn1ncc(S(=O)(=O)N2CC[C@H]3Cc4c(cnn4-c4ccc(F)cc4)C[C@]3(C(=O)c3ccccn3)C2)n1 [Example 2AB, ((4aR,8aS)-6-((2-ethyl-2H-1,2,3-triazol-4-yl)sulfonyl)-1-(4-fluorophenyl)-4,4a,5,6,7,8,8a,9-octahydro-1H-pyrazolo[3,4-g]isoquinolin-4a-yl)(pyridin-2-yl)methanone] | 20 to 100 | < 0.5
7 | Cn1ncc(S(=O)(=O)N2CC[C@H]3Cc4c(cnn4-c4ccc(F)cc4)C[C@]3(C(=O)c3ccccn3)C2)n1 [Example 2AC, ((4aR,8aS)-1-(4-fluorophenyl)-6-((2-methyl-2H-1,2,3-triazol-4-yl)sulfonyl)-4,4a,5,6,7,8,8a,9-octahydro-1H-pyrazolo[3,4-g]isoquinolin-4a-yl)(pyridin-2-yl)methanone] | 20 to 100 | > 1

Other lines, results leading:

Row | Ki [1] [nM] | Ki [2] [nM] | SMILES
8 | < 20 | < 0.5 | CC(C)n1ncc(S(=O)(=O)N2CC[C@H]3Cc4c(cnn4-c4ccc(F)cc4)C[C@]3(C(=O)c3cc(C(F)(F)F)ccn3)C2)n1 [Example 2AD, ((4aR,8aS)-1-(4-fluorophenyl)-6-((2-isopropyl-2H-1,2,3-triazol-4-yl)sulfonyl)-4,4a,5,6,7,8,8a,9-octahydro-1H-pyrazolo[3,4-g]isoquinolin-4a-yl)(4-(trifluoromethyl)pyridin-2-yl)methanone]
9 | > 100 | > 1 | O=C(c1cc(C(F)(F)F)ccn1)[C@]12Cc3cnn(-c4ccc(F)cc4)c3C[C@@H]1CCN(S(=O)(=O)c1cn[nH]n1)C2 [Example 2AE, ((4aR,8aS)-6-((2H-1,2,3-triazol-4-yl)sulfonyl)-1-(4-fluorophenyl)-4,4a,5,6,7,8,8a,9-octahydro-1H-pyrazolo[3,4-g]isoquinolin-4a-yl)(4-(trifluoromethyl)pyridin-2-yl)methanone]
10 | 20 to 100 | > 1 | CC(C)n1cc(S(=O)(=O)N2CC[C@H]3Cc4c(cnn4-c4ccc(F)cc4)C[C@]3(C(=O)c3ccccn3)C2)nn1 [Example 2AF, ((4aR,8aS)-1-(4-fluorophenyl)-6-((1-isopropyl-1H-1,2,3-triazol-4-yl)sulfonyl)-4,4a,5,6,7,8,8a,9-octahydro-1H-pyrazolo[3,4-g]isoquinolin-4a-yl)(pyridin-2-yl)methanone]
11 | 20 to 100 | 0.5 to 1 | O=C(c1nccs1)[C@]12Cc3cnn(-c4ccc(F)cc4)c3C[C@@H]1CCN(S(=O)(=O)c1cccc(C(F)(F)F)n1)C2 [Example 2AG, ((4aR,8aS)-1-(4-fluorophenyl)-6-((6-(trifluoromethyl)pyridin-2-yl)sulfonyl)-4,4a,5,6,7,8,8a,9-octahydro-1H-pyrazolo[3,4-g]isoquinolin-4a-yl)(thiazol-2-yl)methanone]
12 | < 20 | 0.5 to 1 | O=C(c1cscn1)[C@]12Cc3cnn(-c4ccc(F)cc4)c3C[C@@H]1CCN(S(=O)(=O)c1cccc(C(F)(F)F)n1)C2 [Example 2AH, ((4aR,8aS)-1-(4-fluorophenyl)-6-((6-(trifluoromethyl)pyridin-2-yl)sulfonyl)-4,4a,5,6,7,8,8a,9-octahydro-1H-pyrazolo[3,4-g]isoquinolin-4a-yl)(thiazol-4-yl)methanone]
13 | 20 to 100 | > 1 | Cn1ncc(S(=O)(=O)N2CC[C@H]3Cc4c(cnn4-c4ccc(F)cc4)C[C@]3(C(=O)c3cscn3)C2)n1 [Example 2AI, ((4aR,8aS)-1-(4-fluorophenyl)-6-((2-methyl-2H-1,2,3-triazol-4-yl)sulfonyl)-4,4a,5,6,7,8,8a,9-octahydro-1H-pyrazolo[3,4-g]isoquinolin-4a-yl)(thiazol-4-yl)methanone]
14 | < 20 | < 0.5 | CC(C)n1ncc(S(=O)(=O)N2CC[C@H]3Cc4c(cnn4-c4ccc(F)cc4)C[C@]3(C(=O)c3cscn3)C2)n1 [Example 2AJ, ((4aR,8aS)-1-(4-fluorophenyl)-6-((2-isopropyl-2H-1,2,3-triazol-4-yl)sulfonyl)-4,4a,5,6,7,8,8a,9-octahydro-1H-pyrazolo[3,4-g]isoquinolin-4a-yl)(thiazol-4-yl)methanone]
15 | < 20 | – | CCn1ncc(S(=O)(=O)N2CC[C@H]3Cc4c(cnn4-c4ccc(F)cc4)C[C@]3(C(=O)c3cscn3)C2)n1 [Example 2AK, ((4aR,8aS)-6-((2-ethyl-2H-1,2,3-triazol-4-yl)sulfonyl)-1-(4-fluorophenyl)-4,4a,5,6,7,8,8a,9-octahydro-1H-pyrazolo[3,4-g]isoquinolin-4a-yl)(thiazol-4-yl)methanone]

Reference: patent US12139486B2, “Octahydro fused azadecalin glucocorticoid receptor modulators” (Corcept Therapeutics, Inc., priority 2013, dated 2024)
